How the values were obtained:
[1] = system: osteoarthritis; test: Treating osteoarthritis in a subject (experiments of prior application Ser. No. 13/428,996 and present application); assay type: in vivo; conditions: stated without data; based on prior and present application
Source text: Prior experiments conducted by the present inventors, such as those disclosed in the co-pending U.S. application Ser. No. 13/428,996 (the entirety of which is incorporated herein by reference) and experiments provided hereinbelow, reveal that several short, synthetic PEDF peptides derived from the 39-mer, are capable of treating osteoarthritis in a subject.

[2] = system: primary chondrocytes from rat articular cartilage; test: Primary articular chondrocyte proliferation in vitro; assay type: cell-based, Sprague-Dawley rats; conditions: 50 nM peptide; for Aggrecan Labeling Index (%): rat articular chondrocyte monolayer culture, 12 days, mean±SEM, *P<0.01 vs untreated
Description: Articular cartilage was harvested from femoral condyles (the anterior, posterior and lateral areas) of adult 8-wk-old male Sprague-Dawley rats. Care was taken to avoid contamination with synovium and to disruption of the bony structures during the sampling process. Dissected tissue was cut into small (about 0.5 mm^3) pieces and digested sequentially by pronase (70 U/ml, 1 hour at 37° C.) and collagenase (300 U/ml, 3 hours at 37° C.). After digestion, collagenase was removed by a single wash in sterile phosphate-buffered saline (PBS), followed by two further washes in DMEM supplemented with 2% FBS. For primary culture, 6000 trypan blue-negative cells per well were plated on 10 μg/ml fibronectin-coated coverslips in a 6-well plate in 10% FBS-DMEM supplemented with 1% penicillin/streptomycin. The next day, the medium was changed to the standard expansion medium (consisting of 10% FBS-DMEM, 0.1 mM ascorbic acid, 0.5 mg/ml L-glucose, 100 mM HEPES, 1 mM sodium pyruvate, 2 mM L-glutamine and antibiotics) supplemented with or without 50 nM PEDF peptide). The medium was replaced every 3 days for 12 days.
(§1) For immunofluorescence study, the specimens were blocked with 10% goat serum and 5% BSA for 1 hour. Immunostaining was done using primary antibodies against aggrecan (1:100 dilution), type II collagen (1:100 dilution), and BrdU (1:100 dilution) at 37° C. for 2 hours, followed by incubation with the appropriate rhodamine- or FITC-conjugated donkey IgG for 1 hour at room temperature. Nuclei were located by counterstaining with Hoechst 33258 for 7 min. Images were captured using a Zeiss epifluorescence microscope with a CCD camera. Blinded quantification was performed in triplicate by manually counting cells from 20 randomly-selected fields in each section.
Primary chondrocytes were isolated from rat articular cartilage and cultivated in the presence or absence of the present PEDF peptides to elucidate the stimulating effect of the present PEDF peptides on chondrocyte proliferation.
By contrast, in the vehicle group, the colonies are much smaller in the absence of PEDF peptides. The chondrocyte identity of cells within the colony was confirmed by aggrecan immunostaining (FIG. 4A, inserts). The level of aggrecan-positive cells in the monolayer culture (FIG. 4B) were quantified from 20 randomly selected fields, and the aggrecan labeling index (%) was computed as the number of aggrecan-labeled cells divided by the total number of cells (nucleus labeling by Hoechst 33258). Results are summarized in Table 2; *P<0.01 versus untreated cells.

[3] = system: chondrocytes in damaged articular cartilage (MIA-induced osteoarthritis); test: MIA-induced knee osteoarthritis in rats: chondrocyte proliferation and cartilage regeneration in vivo; parameters: species or system Sprague-Dawley rats; conditions: for BrdU/Aggrecan Labeling Index (%): rat MIA knee, 0.2 mM peptide in 25 μl of 5% HA (HA group: 5% HA alone), intra-articular on day 8, 12, 16, 20 post-MIA, mean±SEM, *P<0.0001 vs vehicle/HA; for H&E histology of knee joint (morphological changes associated with osteoarthritis): specimens day-18 and day-25 post-MIA injection, FIG. 1; for Chondrocytes in cartilage layers, microscopic images: knee specimens 25 days after MIA injection, FIG. 2
Description: Animal models of osteoarthritis were established by intra-articular injection of MIA. Specifically, adult 10-wk-old male Sprague-Dawley rats (initial body wt=312±11 g) were anesthetized with an intraperitoneal injection of xylazine (10 mg/kg), followed by a single intra-articular injection of MIA (1 mg of MIA in 25 μl of sterile saline) in the right knee. In particular, the MIA solution was injected through the patellar ligament by using a 27G needle with the leg flexed at a 90° angle at the knee.
For the detection of in vivo cell proliferation, BrdU was reconstituted in DMSO as stock (80 mM). 150 μl of BrdU mixed with 350 μl of PBS was intraperitoneally injected into rat at 16 hours prior to euthanasia. DNA synthesis was then assessed by BrdU labeling with anti-BrdU antibodies according to procedures set forth below.
The knee joints were dissected and the surrounding soft tissue was removed. Specimens were fixed in 4% paraformaldehyde and then decalcified with Shandon TBD-2 decalcifier (Thermo Scientific; Logan, Utah). The joints were then sectioned mid-sagittally and embedded in paraffin blocks. Sections (5 μm in thickness) were longitudinally cut.
Before use, fixed samples were de-pa raffinized in xylene and rehydrated in a graded series of ethanol. The sample were then stained with hematoxylin and eosin (H&E) or used for immunohistochemical examination. 20 sections per knee were carefully prepared so as to include the most severely degenerated area.
Paraffin-embedded joint specimens were deparaffinized in xylene and rehydrated in a graded series of ethanol. Deparaffinized specimens were then exposed to 1 N HCl at room temperature for 1 hour for subsequent immunofluorescence study.
as §1
Knee osteoarthritis is a common chronic degenerative disease characterized by loss of articular cartilage. Injection of mono-iodoacetate (MIA), an inhibitor of glycolysis, into the femorotibial joint space of rodents has been reported to induce loss of articular cartilage similar to that noted in human OA. It has been established that extensive chondrocyte degeneration/necrosis usually arises at 7 days after MIA injection. Therefore, PEDF peptide treatment was started on day 8 post-MIA injection, so as to elucidate whether the present PEDF peptides promote cartilage regeneration.
Rats were randomly assigned to 6 experimental groups (n=6, each group) and treated as follows. In the HA group, rats received 25 μl of 5% hyaluronic acid injection. In the Vehicle/HA group, rats were treated with DMSO vehicle re-dissolved in 25 μl of 5% HA. As to the 29-mer/HA, 24-mer/HA, 20-mer/HA, and 18-mer/HA groups, rats received 0.2 mM PEDF peptide (29-mer, 24-mer, 20-mer or 18-mer) re-dissolved in 25 μl of 5% HA. Treatments were applied by way of a single intra-articular injection once on day-8, 12, 16 and 20, respectively, post-MIA injection.
Quantitative analysis was performed as described above from 3 sections per knee joint specimen, and 6 rats at each group. The BrdU/aggrecan labeling index (%) was computed as the number of BrdU- and aggrecan-double positive cells divided by the total number of aggrecan-positive cells. Results are summarized in Table 1; *P<0.0001 versus the vehicle/HA group.

[4] = system: mesenchymal stem cells (MSCs); test: Chondrogenic differentiation of MSCs: aggrecan immunostaining; assay type: cell-based, Sprague-Dawley rats; conditions: rat MSCs in chondrogenic medium plus 50 nM peptide, 1 week; mean±SEM; *P<0.0001 vs vehicle
Description: Adult 8-wk-old male Sprague-Dawley rats were anesthetized with an intraperitoneal injection of xylazine (10 mg/kg). Femurs were aseptically harvested, washed in a mixture of PBS and antibiotics for 5 minutes, dissected of all soft tissue, transected at their epiphysis, and their marrow cavity was rinsed repeatedly with a mixture of heparin and DMEM. The harvested cells were centrifuged at 1000×g for 10 minutes. Cell pellets were resuspended with DMEM, and then the cell suspension was transferred to a 15-ml centrifuge tube containing 5 ml of Percoll (1.073 g/ml). After centrifugation at 1500×g for 30 minutes, the mononuclear cells in the middle layer were separated, washed three times with PBS and then resuspended in low-glucose DMEM with 10% heat-inactivated FBS and 1% penicillin/streptomycin. Cells were then incubated with 95% air and 5% CO2 at 37° C.; the medium was replaced every 4 days. Unattached cells were discarded and adherent cells were retained. The primary mesenchymal stem cells (MSCs) grew to approximately 80%-90% confluence after culture for 1 week.
For inducing the chondrogenic differentiation of MSCs, 5×10^5 expanded MSCs were exposed to chondrogenic medium (high-glucose DMEM with 100 nM dexamethasone, 0.17 mM ascorbic acid-2 phosphate, 10 μg/ml of insulin, 5 μg/ml of transferrin, 5 ng/ml selenium, 1 mM sodium pyruvate, 2 mM L-glutamine, and 2% FBS) supplemented with 10 ng/ml TGF-β2 (R&D Systems; Minneapolis, Minn.). […]
For immunofluorescence study, the specimens were blocked with 10% goat serum and 5% BSA for 1 hour. […] Blinded quantification was performed in triplicate by manually counting cells from 20 randomly-selected fields in each section.
Immunostaining for aggrecan and type II collagen was also performed to investigate the pro-differentiation activity of the present PEDF peptides. The level of aggrecan-positive cells were quantified from 20 randomly selected fields, and the aggrecan labeling index (%) was computed as the number of aggrecan-labeled cells divided by the total number of cells (nucleus labeling by Hoechst 33258). […]

Substance | Effectiveness in treating osteoarthritis in a subject [1] | Aggrecan Labeling Index (%) [2] | BrdU/Aggrecan Labeling Index (%) [3] | Aggrecan Labeling Index (%) [4] | also measured
ALSALSLGAEQRTESIIHRALYYDLISSPDIHGT [34-mer, corresponds to residues 88-121 of human PEDF] | effective |  |  |  | 
EQRTESIIHRALYYDLIS (optionally in 5% hyaluronic acid) [18-mer, peptide lacking the SLGA residues; /HA = re-dissolved in 5% hyaluronic acid, reference compound] | fails to elicit any protection against osteoarthritis | 31.8 ± 2.6% | does not elicit such promoting effect |  | BrdU/Aggrecan Labeling Index (%) ([3]; listed as 18-mer/HA): 0.67 ± 0.33%; H&E histology of knee joint (morphological changes associated with osteoarthritis) [3]: morphological changes associated with osteoarthritis (including the reduction of cartilage, the superficial fibrosis of cartilage and subchondral bone collapse) is noted
EQRTESIIHRALYYDLISSPDIHGT [25-mer, peptide lacking the SLGA residues] | ineffective |  |  |  | 
SLGAEQRTESIIHRALYYDL (optionally in 5% hyaluronic acid) [20-mer, residues 93-112 of human PEDF; /HA = re-dissolved in 5% hyaluronic acid] |  | 50.1 ± 3.6* % | 17.5 ± 2.7* % | 78.7 ± 3.8* % | Chondrocyte growth and colony formation ([2]; vs vehicle group, FIG. 4A): chondrocytes grew faster and aggregated into huge three dimensional colonies; Aggrecan-positive cells among all cells (aggrecan/Hoechst 33258 dual staining) ([3]; FIG. 3 middle panels): over 95%; Chondrocytes in cartilage layers, microscopic images [3]: occupation of large numbers of newly generated chondrocyte throughout the cartilage; H&E histology of knee joint (morphological changes associated with osteoarthritis) [3]: the cartilage surface is smoother and the cartilage and subchondral bone are relatively integral; Aggrecan-positive signals in cartilage (immunostaining) ([3]; superficial, transitional and deep zone, vs vehicle-treated knee, FIG. 3 left): heavily accumulated; Numbers of BrdU-positive cells ([3]; vs vehicle/HA group, FIG. 3 right panels): increased significantly
SLGAEQRTESIIHRALYYDLISSP (optionally in 5% hyaluronic acid) [24-mer, residues 93-116 of human PEDF; /HA = re-dissolved in 5% hyaluronic acid] |  | 50.0 ± 2.9* % | 16.0 ± 2.03* % | 78.8 ± 4.3* % | 
SLGAEQRTESIIHRALYYDLISSPDIHGT (optionally in 5% hyaluronic acid) [29-mer, residues 93-121 of human PEDF; /HA = re-dissolved in 5% hyaluronic acid] |  | 52.2 ± 5.2* % | 15.0 ± 2.38* % | 76.8 ± 5.0* % | Chondrocytes in cartilage layers, microscopic images [3]: occupation of large numbers of newly generated chondrocyte throughout the cartilage
hyaluronic acid [HA, reference compound] |  |  | 0.71 ± 0.28% |  | 

Reference: patent US9777048B2, “Use of PEDF-derived polypeptides for treating osteoarthritis” (MacKay Memorial Hospital, priority 2012, dated 2017)
